Test results reported in US20180207249A1, “METHOD AND VACCINE COMPRISING COPOLYMER 1 FOR TREATMENT OF PSYCHIATRIC DISORDERS” (YEDA RESEARCH AND DEVELOPMENT CO. LTD., priority 2003, published 2018).

How the values were obtained:
[1] = test system: C57BL/6J mice injected with MK-801 or AMPH; assay: Morris water maze (MWM) spatial learning/memory task after psychotomimetic drug; format: in vivo, mouse; details: C57BL/6J mice immunized 1 week before MK-801
Method: (§1) (iii) Immunization. Each animal was injected with a total of 100 μg of Cop-1 emulsified in an equal volume of complete Freund's adjuvant (CPA) containing 5 mg/ml of Mycobacteria H37 RA (Difco). The emulsion, in a total volume of 0.1 mL, was injected into the flank 1 week before the mouse was first injected with a psychotomimetic drug. Control mice were injected with an equal volume of phosphate-buffered saline (PBS) emulsified in CFA.
(vi) Drug solutions. Fresh solutions of dizocilpine maleate (MK-801; Sigma-Aidrich) were prepared in physiological saline (0.9% NaCl in sterile distilled water) for each batch of mice. Physiological saline was also used as a vehicle for D-amphetamine sulfate (AMPH: Sigma). MK-801. (0.1 mg/kg) or AMPH (2.5 mg/kg) or sahne was injected i.p., in a total volume of 5 ml per kg of body weight. Mice were injected with MK-801, AMPH, or vehicle 15 min before being subjected to behavioral tests.
(vii) Morris water maze (MWM) behavioral test. Spatial learning/memory was assessed by performance on a hippocampal-dependent visuospatial learning task in the MWM. Mice were given four trials per day, for four consecutive days, to find a hidden platform located 1.5 cm below the water surface in a pool 1.4 m in diameter. Within the testing room only distal visuo-spatial cues were available to the mice for location of the submerged platform. The escape latency, i.e., the time required by the mouse to find and climb onto the platform, was recorded for up to 60 s. Each mouse was allowed to remain on the platform for 30 s, and was then moved from the maze to its home cage. […] The inter-trial interval was 30 s. On day 5, the platform was removed from the pool, and each mouse was tested by a probe trial for 60 s. On days 6-7 the platform was placed at the opposite, location, and the mouse was retrained in four sessions. Data were recorded by using an EthoVision automated tracking system (Noldus Information Technology, Wageningen, The Netherlands). […]

[2] = test system: male C57B1/6J mice exposed to the odor of a predator; assay: Behavioral adaptation to psychological stress (predator odor; EPM and ASR cut-off behavioral criteria); format: in vivo, mouse; details: single 10-min exposure to odor of a predator, PBS/CFA control 40.8%, P<0.05
Method: as §1
(ix) Induction of psychological stress. Mice in the experimental groups were exposed for 10 minutes to thoroughly soiled eat litter (used by a cat for 2 days and sifted for faeces). Control (WT) mice were exposed for the same time to unused litter. […]
Behavior on the EPM was recorded using EthoVision programs (Noldus) that recorded the location of the mouse over the 5-minute test period. […]
Five behavioral parameters were assessed: (1) time spent in the open arms; (2) time spent in the closed arms; (3) number of entries into open arms; (4) number of entries into closed arms; (5) total number of entries into all arms. Mice were recorded as having entered an open or closed arm only when all four paws had passed over the dividing line between open and closed arms. […]
(xi) Acoustic startle response (ASR). […] The ASR and pre-pulse inhibition were measured using two ventilated startle chambers (SR-LAB system, San Diego Instruments, San Diego, Calif.). […]

[3] = test system: mice injected with a psychotomimetic drug; assay: Social behavior test; format: in vivo, mouse; details: vaccinated mice vs controls; data not shown
[4] = test system: rats exposed to psychotomimetic drugs; assay: Vaccination after exposure to psychotomimetic drugs; format: in vivo; details: vaccination after drug exposure, not shown

Copolymer 1 [Cop-1]
MWM extinction phase, time spent in training quadrant after MK-801 [1]: behaved similarly to WT mice | Prevalence of maladaptation (behavioral changes) after predator odor [2]: 14.8% | Communicative behavior in social behavior test [3]: better communicative behavior than the controls | Effect of vaccination given after psychotomimetic drugs [4]: beneficial
